Test results from patent US20110166162A1, “1,2-Benzisothiazole Compounds Useful for Combating Animal Pests” (priority 2007, published 2011).

Columns and labels:
Type in all cases: in vivo
[1] = tested on: rice green leafhopper (nephotettix virescens); assay: Rice green leafhopper on sprayed rice seedlings; conditions: 300 ppm, adults, after 72 hours
Description: II.12 Rice Green Leafhopper (nephotettix virescens)
Rice seedlings were cleaned and washed 24 hours before spraying. The active compounds were formulated in 50:50 acetone:water (vol/vol), and 0.1% (vol/vol) surfactant (EL 620) was added. Potted rice seedlings were sprayed with 5 ml test solution, air dried, placed in cages and inoculated with 10 adults. Treated rice plants were kept at about 28-29° C. and relative humidity of about 50-60%. Percent mortality was recorded after 72 hours.

[2] = tested on: green peach aphid (Myzus persicae); assay: Green peach aphid, pepper plant leaf dip test; conditions: 300 ppm; pepper plants dipped; after 5 days
Text: II.11 Green Peach Aphid (myzus persicae)
(§1) The active compounds were formulated in 50:50 acetone:water (vol/vol) and 100 ppm Kinetic™ surfactant.
Pepper plants in the 2nd leaf-pair stage (variety “California Wonder”) were infested with approximately 40 laboratory-reared aphids by placing infested leaf sections on top of the test plants. The leaf sections were removed after 24 hr. The leaves of the intact plants were dipped into gradient solutions of the test compound and allowed to dry. Test plants were maintained under fluorescent light (24 hour photoperiod) at about 25° C. and about 20-40% relative humidity. Aphid mortality on the treated plants, relative to mortality on check plants, was determined after 5 days.

[3] = tested on: silverleaf whitefly (bemisia argentifolii); assay: Silverleaf whitefly, cotton cotyledon dip test; conditions: 300 ppm; cotyledons dipped; 3 days after treatment
Description: II.9 Silverleaf Whitefly (bemisia argentifolii)
as §1
Selected cotton plants were grown to the cotyledon state (one plant per pot). The cotyledons were dipped into the test solution to provide complete coverage of the foliage and placed in a well-vented area to dry. Each pot with treated seedling was placed in a plastic cup and 10 to 12 whitefly adults (approximately 3-5 day old) were introduced. The insects were collected using an aspirator and a Tygon® tubing connected to a barrier pipette tip. The tip containing the collected insects was then gently inserted into the soil containing the treated plant allowing insects to crawl out of the tip to reach the foliage for feeding. The cups were covered with a re-usable screened lid. Test plants were maintained in the holding room at about 25° C. and about 20-40% relative humidity for 3 days avoiding direct exposure to the fluorescent light (24 hour photoperiod) to prevent trapping of heat inside the cup. Mortality was assessed 3 days after treatment of the plants.

adult female rats = assay: Acute oral rat toxicity study, single oral gavage, 14 days observation; conditions: three rats per study, single oral gavage dose 100 mg/kg bw
Description: Some representatives of the compounds according to the present invention have been tested in acute oral rat toxicity studies.
In these studies, test substances were administered to adult female rats by oral gavage for one time. The compounds were administered as a 1% b.w. suspension or the compound in a 1% aqueous carboxymethyl cellulose solution. In each study three rats were used. The animals were treated with a single dose of 100 mg/kg bw. […] After the 14 day observation period, the animals were sacrificed, dissected, and examined for gross pathological lesions.

SMILES | Lethality (cumulative) 0-5 h after treatment (adult female rats) | Lethality (cumulative) 1 d after treatment (adult female rats) | Lethality (cumulative) 2 d after treatment (adult female rats) | Lethality (cumulative) 7 d after treatment (adult female rats) | Lethality (cumulative) 14 d after treatment (adult female rats) | also measured
COc1cc(CN2C(=O)c3cc(-c4ccc(F)cc4F)ccc3S2(=O)=O)ccn1 [I.19] |  |  |  |  |  | mortality in comparison with untreated controls [1]: over 75%
O=C1c2cc(-c3ccc(F)cc3F)ccc2S(=O)(=O)N1Cc1ccncc1 [I.20] |  |  |  |  |  | mortality in comparison with untreated controls [2]: over 75%
O=C1c2cc(-c3ccc(F)cc3F)ccc2S(=O)(=O)N1Cc1ccnc2cc(C(F)(F)F)ccc12 [I.28] |  |  |  |  |  | mortality in comparison with untreated controls [3]: over 75%
Cc1nccc(CN2C(=O)c3cc(-c4ccc(C(F)(F)F)cc4Cl)ccc3S2(=O)=O)c1C [I.34] | 0 | 0 | 0 | 0 | 1 | 
Cc1nccc(CN2C(=O)c3cc(-c4ccc(Cl)cc4C(F)(F)F)ccc3S2(=O)=O)c1C [I.35] | 0 | 0 | 0 | 0 | 2 | 
